# From patent publication US20240308978A1, “COMPOUNDS AND COMPOSITIONS FOR TREATING CONDITIONS ASSOCIATED WITH STING ACTIVITY” (IFM Due, Inc., priority 2021, published 2024)
# Biological target: T1, hSTING (Homo sapiens, UniProt Q86WV6, G230A/H232R/R293Q/R71H)
# T1 construct: host or cells: THP1-Dual KO-IFNAR2 cells
# Assay: STING reporter assay (luciferase) in THP1-Dual KO-IFNAR2 cells stimulated with 2′3′cGAMP
# Type: cell-based
# Settings: 15 μM 2′3′cGAMP transfected, 24 h
# Experimental: STING pathway activation by the compounds described herein was measured using THP1-Dual™ cells (KO-IFNAR2).
# THP1-Dual™ KO-IFNAR2 Cells (obtained from invivogen) were maintained in RPMI, 10% FCS, 5 ml P/S, 2 mM L-glut, 10 mM Hepes, and 1 mM sodium pyruvate. Compounds were spotted in empty 384 well tissue culture plates (Greiner 781182) by Echo for a final concentration of 0.0017-100 μM. Cells were plated into the TC plates at 40 μL per well, 2×10E6 cells/mL. For activation with STING ligand, 2′3′cGAMP (MW 718.38, obtained from Invivogen), was prepared in Optimem media.
# The following solutions were prepared for each 1×384 plate: • Solution A: 2 mL Optimem with one of the following stimuli: • 60 μL of 10 mM 2′3′cGAMP→150 μM stock • Solution B: 2 mL Optimem with 60 μL Lipofectamine 2000→Incubate 5 min at RT
# 2 mL of solution A and 2 ml Solution B was mixed and incubated for 20 min at room temperature (RT). 20 μL of transfection solution (A+B) was added on top of the plated cells, with a final 2′3′cGAMP concentration of 15 μM. The plates were then centrifuged immediately at 340 g for 1 minute, after which they were incubated at 37° C., 5% CO2,>98% humidity for 24 h. Luciferase reporter activity was then measured. EC50 values were calculated by using standard methods known in the art.
# Luciferase reporter assay: 10 μL of supernatant from the assay was transferred to white 384-plate with flat bottom and squared wells. One pouch of QUANTI-Luc™ Plus was dissolved in 25 mL of water. 100 μL of QLC Stabilizer per 25 mL of QUANTI-Luc™ Plus solution was added. 50 μL of QUANTI-Luc™ Plus/QLC solution per well was then added. Luminescence was measured on a Platereader (e.g., Spectramax I3X (Molecular Devices GF3637001)).
# Luciferase reporter activity was then measured. EC50 values were calculated by using standard methods known in the art.
# [1] = numeric bound given instead of a class symbol
# T1 sequence (Q86WV6 whole entry R71H/G230A/H232R/R293Q): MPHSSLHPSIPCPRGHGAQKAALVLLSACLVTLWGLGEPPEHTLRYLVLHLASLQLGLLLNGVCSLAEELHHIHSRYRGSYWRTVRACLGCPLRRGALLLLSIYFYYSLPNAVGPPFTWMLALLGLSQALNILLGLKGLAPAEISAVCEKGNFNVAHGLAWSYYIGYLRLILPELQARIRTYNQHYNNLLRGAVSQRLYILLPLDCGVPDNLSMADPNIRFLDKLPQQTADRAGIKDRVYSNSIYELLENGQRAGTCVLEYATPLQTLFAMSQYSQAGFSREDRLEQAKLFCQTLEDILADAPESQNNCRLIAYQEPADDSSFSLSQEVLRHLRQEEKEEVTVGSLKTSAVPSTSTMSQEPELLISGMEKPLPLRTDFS
EC50 (class symbols) [nM],EC50 [1] [nM],Structure (SMILES)
200 to 1000,–,"O=C(Nc1c[nH]c2ccc(F)cc12)N[C@H]1CC[C@H](Oc2ccc(C(F)(F)F)cn2)CC1 [Compound 108, 1-(5-fluoro-1H-indol-3-yl)-3-((1r,4r)-4-((5-(trifluoromethyl)pyridin-2-yl)oxy)cyclohexyl)urea]"
200 to 1000,–,"O=C(Nc1c[nH]c2ccc(F)cc12)N[C@H]1CC[C@@H](Oc2ccc(C(F)(F)F)cn2)CC1 [Compound 109, 1-(5-fluoro-1H-indol-3-yl)-3-((1s,4s)-4-((5-(trifluoromethyl)pyridin-2-yl)oxy)cyclohexyl)urea]"
200 to 1000,–,"O=C(Nc1c[nH]c2ccc(Cl)cc12)N[C@H]1CC[C@@H](Oc2ccc(C(F)(F)F)cn2)CC1 [Compound 113, 1-(5-chloro-1H-indol-3-yl)-3-((1s,4s)-4-((5-(trifluoromethyl)pyridin-2-yl)oxy)cyclohexyl)urea]"
200 to 1000,–,"O=C(Nc1c[nH]c2ccc(Cl)cc12)N[C@H]1C[C@@H](Oc2ccc(C(F)(F)F)cn2)C1 [Compound 111, 1-(5-chloro-1H-indol-3-yl)-3-((1s,3s)-3-((5-(trifluoromethyl)pyridin-2-yl)oxy)cyclobutyl)urea]"
200 to 1000,–,"O=C(Nc1c[nH]c2ccc(Cl)cc12)N[C@H]1CC[C@H](Oc2ccc(C(F)(F)F)cn2)CC1 [Compound 112, 1-(5-chloro-1H-indol-3-yl)-3-((1r,4r)-4-((5-(trifluoromethyl)pyridin-2-yl)oxy)cyclohexyl)urea]"
200 to 1000,–,"O=C(Nc1c[nH]c2ccc(Cl)cc12)N[C@H]1C[C@H](Oc2ccc(C(F)(F)F)cn2)C1 [Compound 110, 1-(5-chloro-1H-indol-3-yl)-3-((1r,3r)-3-((5-(trifluoromethyl)pyridin-2-yl)oxy)cyclobutyl)urea]"

# Further lines, the compound ahead of its results:
Structure (SMILES),EC50 (class symbols) [nM],EC50 [1] [nM]
"O=C(Nc1c[nH]c2ccc(Cl)cc12)N[C@H]1CC[C@H](N2CCC(F)(F)CC2)CC1 [Compound 103, 1-(5-chloro-1H-indol-3-yl)-3-((1r,4r)-4-(4,4-difluoropiperidin-1-yl)cyclohexyl)urea]",5000 to 100000,–
"O=C(Nc1c[nH]c2ncc(F)cc12)N[C@H]1CC[C@@H](Oc2ccc(C(F)(F)F)cn2)CC1 [Compound 115, 1-(5-fluoro-1H-pyrrolo[2,3-b]pyridin-3-yl)-3-((1s,4s)-4-((5-(trifluoromethyl)pyridin-2-yl)oxy)cyclohexyl)urea]",1000 to 5000,–
"O=C(Nc1c[nH]c2cc(F)c(F)cc12)NC1CC(OC2CCN(CC(F)(F)F)CC2)C1 (stereo not drawn) [Compound 104, 1-(5,6-difluoro-1H-indol-3-yl)-3-(3-((1-(2,2,2-trifluoroethyl)piperidin-4-yl)oxy)cyclobutyl)urea]",1000 to 5000,–
"O=C(Nc1c[nH]c2cc(F)c(F)cc12)N[C@H]1CC[C@H](OC2CC(F)(F)C2)CC1 [Compound 101, 1-(5,6-difluoro-1H-indol-3-yl)-3-((1r,4r)-4-(3,3-difluorocyclobutoxy)cyclohexyl)urea]",1000 to 5000,–
"O=C(Nc1c[nH]c2ccc(Cl)cc12)N[C@H]1CC[C@@H](N2CCC(F)(F)CC2)CC1 [Compound 102, 1-(5-chloro-1H-indol-3-yl)-3-((1s,4s)-4-(4,4-difluoropiperidin-1-yl)cyclohexyl)urea]",5000 to 100000,–
"O=C(Nc1c[nH]c2ccc(Cl)cc12)NC1CCN(Cc2ccc(C(F)(F)F)cn2)CC1 [Compound 107, 1-(5-chloro-1H-indol-3-yl)-3-(1-((5-(trifluoromethyl)pyridin-2-yl)methyl)piperidin-4-yl)urea]",1000 to 5000,–
"O=C(Nc1c[nH]c2ccc(Cl)cc12)NC1CCN(c2ccc(C(F)(F)F)cn2)CC1 [Compound 105, 1-(5-chloro-1H-indol-3-yl)-3-(1-(5-(trifluoromethyl)pyridin-2-yl)piperidin-4-yl)urea]",200 to 1000,–
"COCCN1CCC(O[C@H]2CC[C@H](NC(=O)Nc3c[nH]c4ccc(Cl)cc34)CC2)CC1 [Compound 106, 1-(5-chloro-1H-indol-3-yl)-3-((1r,4r)-4-((1-(2-methoxyethyl)piperidin-4-yl)oxy)cyclohexyl)urea]",–,> 30000
"O=C(Nc1c[nH]c2ncc(F)cc12)N[C@H]1CC[C@H](Oc2ccc(C(F)(F)F)cn2)CC1 [Compound 116, 1-(5-fluoro-1H-pyrrolo[2,3-b]pyridin-3-yl)-3-((1r,4r)-4-((5-(trifluoromethyl)pyridin-2-yl)oxy)cyclohexyl)urea]",–,> 30000
